The record followed here is doi:10.1101/2021.10.07.463234v2 (biorxiv, 2021).

Structures can show the parent of a compound that is named as a salt. Peptide text beside a SMILES is read from it.

The target of one experiment is SARS-CoV-2 Mac1 (Severe acute respiratory syndrome coronavirus 2, UniProt P0DTD1). The experiment can be described thus: biochemical. The note with it: 100 µM; inhibitor.
In general, %inhibition refers to the share of the control response that was lost under treatment. Take `Clc1ccc(CCC(Cn2ccnc2)Sc2c(Cl)cccc2Cl)cc1` (centres unmarked) [Butoconazole]: the “%inhibition” value is listed as 13.63%.
`CC1(C)S[C@@H]2[C@H](NC(=O)[C@H](N)c3ccccc3)C(=O)N2[C@H]1C(=O)O` [Ampicillin sodium]: the “%inhibition” value is 0%.
On the same count and under the same terms, under `Nc1ccncc1` [4-Aminopyridine] stands 5.817%; under `CC(C)(C)NCC(O)c1ccc(O)c(CO)c1` (centres unmarked) [Salbutamol Sulfate], 6.444%; under `CCN(CC)CC(=O)Nc1c(C)cccc1C` [Lidocaine hydrochloride], 4.808%.
As for `O=C(NC1CCN(CCCCC2(C(=O)NCC(F)(F)F)c3ccccc3-c3ccccc32)CC1)c1ccccc1-c1ccc(C(F)(F)F)cc1` [Lomitapide Mesylate], the “%inhibition” value is 34.98%.
Regarding `C[C@H]1c2cccc(O)c2C(=O)C2=C(O)[C@]3(O)C(=O)C(C(N)=O)=C(O)[C@@H](N(C)C)[C@@H]3[C@@H](O)[C@@H]21` [Doxycycline], the “%inhibition” value was 4.525%.
Still for that read-out and setting: under `COc1ccc(C(CN(C)C)C2(O)CCCCC2)cc1` (centres unmarked) [Venlafaxine HCl] stands 0%.
On the same count and under the same terms, under `O=c1sn(-c2cccc3ccccc23)c(=O)n1Cc1ccccc1` [Tideglusib] stands 42.74%; under `COCCc1ccc(OCC(O)CNC(C)C)cc1` (centres unmarked) [Metoprolol succinate], 1.216%; under `CCCN[C@H]1CCc2nc(N)sc2C1` [Pramipexole 2HCl Monohydrate], 5.796%.
`CC[C@H]1OC(=O)C[C@@H](O)[C@H](C)[C@@H](O[C@@H]2O[C@H](C)[C@@H](O)[C@H](N(C)C)[C@H]2O)[C@@H](CCN2C[C@H](C)C[C@H](C)C2)C[C@@H](C)C(=O)/C=C/C(C)=C/[C@@H]1CO[C@@H]1O[C@H](C)[C@@H](O)[C@@H](OC)[C@H]1OC` [Tilmicosin phosphate]: the “%inhibition” value is given as 0%.
For the molecule `CN1[C@@H]2CCC[C@H]1C[C@@H](NC(=O)c1nn(C)c3ccccc13)C2` [Granisetron HCl], the “%inhibition” value turned out to be 0%.
With `CCN(CC)CCNC(=O)c1c(C)[nH]c(/C=C2\C(=O)Nc3ccc(F)cc32)c1C` [Sunitinib], the “%inhibition” value is 31.86%.

The experiment is the same for the next values; noted with them: read-out: %inhibition.
What is called inhibition is the share of the control response that was lost under treatment. As to `Nc1nc2c(ncn2COC(CO)CO)c(=O)[nH]1` [Ganciclovir], the inhibition at 100 µM is 49.4%.
The same measure, in the same setting: under `O=c1ccc2ccccc2o1` [Coumarin] stands 5.25%.
For `Cc1ncc([N+](=O)[O-])n1CC(O)CCl` (centres unmarked) [Ornidazole], the inhibition at 100 µM turned out to be 17.6%.
On the same count and under the same terms, under `CN1CCN(c2nc(C3=C(c4c[nH]c5ccccc45)C(=O)NC3=O)c3ccccc3n2)CC1` [Sotrastaurin] stands 34.7%; under `C=C1/C(=C\C=C2/CCC[C@]3(C)[C@@H]([C@H](C)CCCC(C)C)CC[C@@H]23)C[C@@H](O)C[C@@H]1O` [Alfacalcidol], 0%; under `CCCCN1CCCC[C@H]1C(=O)Nc1c(C)cccc1C` [Levobupivacaine HCl], 0%.
Still for that read-out and setting: under `CCNC(=O)CCC/C=C\C[C@@H]1[C@@H](/C=C/[C@@H](O)CCc2ccccc2)[C@H](O)C[C@@H]1O` [Bimatoprost] stands 0%; under `CO[C@H]1C[C@H](O[C@@H]2/C(C)=C/C[C@@H]3C[C@@H](C[C@]4(CC[C@H](C)[C@@H](C5CCCCC5)O4)O3)OC(=O)[C@@H]3C=C(C)/C(=N/O)[C@H]4OC/C(=C\C=C\[C@@H]2C)[C@]43O)O[C@@H](C)[C@@H]1O` [Selamectin], 13.4%; under `OCCN1CCN(CCCN2c3ccccc3Sc3ccc(Cl)cc32)CC1` [Perphenazine], 0%.
Regarding `C[C@]12CC[C@@H]3c4ccc(O)cc4CC[C@H]3[C@@H]1CC[C@@H]2O` [Estradiol], the inhibition at 100 µM was 0%.
Same read-out and setting: under `CCN(CC)C(=O)c1cccnc1` [Nikethamide] stands 0%; under `NCCCC(O)(P(=O)(O)O)P(=O)(O)O` [Alendronate sodium trihydrate], 1.69%; under `COc1ccc2[nH]cc(CCNC(C)=O)c2c1` [Melatonin], 9.33%.
Take `COc1ccccc1N1CCN(CCCNc2cc(=O)n(C)c(=O)n2C)CC1` [Urapidil HCl]: the inhibition at 100 µM amounted to 2.64%.
Take `COc1cccc(-c2ccc(NC(=O)C3=C(C(=O)O)CCC3)c(F)c2)c1` [Vidofludimus]: the inhibition at 100 µM stood at 19.8%.
The same measure, in the same setting: under `Cc1ccc(C(=O)N(CCCN)[C@@H](c2nc3cc(Cl)ccc3c(=O)n2Cc2ccccc2)C(C)C)cc1` [Ispinesib (SB-715992)] stands 0%.
The same measure, in the same setting: under `C[C@@H](Oc1cc(-c2cnn(C3CCNCC3)c2)cnc1N)c1c(Cl)ccc(F)c1Cl` [Crizotinib (PF-02341066)] stands 6.7%; under `CC(C)c1cc(-c2n[nH]c(=O)n2-c2ccc3c(ccn3C)c2)c(O)cc1O` [Ganetespib (STA-9090)], 1.18%; under `CCCCC(=O)N(Cc1ccc(-c2ccccc2-c2nnn[nH]2)cc1)[C@H](C(=O)O)C(C)C` [Valsartan], 31.1%.
`C[C@@H]1CN(c2c(F)c(N)c3c(=O)c(C(=O)O)cn(C4CC4)c3c2F)C[C@H](C)N1` [Sparfloxacin]: the inhibition at 100 µM amounted to 25.5%.
The same measure, in the same setting: under `CS(=O)(=O)n1cc2c(n1)CN([C@H]1CO[C@H](c3cc(F)ccc3F)[C@@H](N)C1)C2` [Omarigliptin (MK-3102)] stands 0%; under `C[C@H]1C[C@H]2[C@@H]3CCC4=CC(=O)C=C[C@]4(C)[C@H]3C(=O)C[C@]2(C)[C@@]1(O)C(=O)CO` [Meprednisone], 8.14%; under `CCOC(=O)[C@H](CCc1ccccc1)N[C@@H](C)C(=O)N1[C@H](C(=O)O)C[C@@H]2CCC[C@@H]21` [Ramipril], 0%.
Same read-out and setting: under `O=c1[nH]c(=O)c2ccccc2o1` [Carsalam] stands 0%.
On the same count and under the same terms, under `CCN1CCN(C(=O)N[C@@H](C(=O)N[C@@H]2C(=O)N3[C@@H]2SC(C)(C)[C@@H]3C(=O)O)c2ccccc2)C(=O)C1=O` [Piperacillin Sodium] stands 24.2%; under `CC(C)(Oc1ccc(Cl)cc1)C(=O)O` [Clofibric Acid], 17.2%.
With `CCCCC[C@H](O)/C=C/[C@H]1[C@H](O)CC(=O)[C@@H]1CCCCCCC(=O)O` [Alprostadil], the inhibition at 100 µM worked out at 0%.
As to `C[C@@H]1O[C@@H]1P(=O)(O)O` [Fosfomycin Disodium], the inhibition at 100 µM is 0%.
`CC(C)NCC(O)c1ccc(NS(C)(=O)=O)cc1` (centres unmarked) [Sotalol HCl]: the inhibition at 100 µM turned out to be 0%.
Regarding `O=C(NCC(O)CO)c1c(I)c(C(=O)NCC(O)CO)c(I)c(N(CCO)C(=O)CO)c1I` (centres unmarked) [Ioversol], the inhibition at 100 µM came to 25.5%.
Same read-out and setting: under `CC(C)(C)c1cc(C(C)(C)C)c(NC(=O)c2c[nH]c3ccccc3c2=O)cc1O` [Ivacaftor (VX-770)] stands 5.97%; under `Nc1nc(N)c2nc(-c3ccccc3)c(N)nc2n1` [Triamterene], 4.22%.
In the case of `CN(C)CCC(c1ccc(Br)cc1)c1ccccn1` (centres unmarked) [Brompheniramine hydrogen maleate], the inhibition at 100 µM was 9.47%.
`CN(C)CCC[C@@]1(c2ccc(F)cc2)OCc2cc(C#N)ccc21` [Escitalopram Oxalate]: the inhibition at 100 µM is 0%.
Still for that read-out and setting: under `N[C@H]1CONC1=O` [L-Cycloserine] stands 1.65%; under `OC[C@H]1O[C@@H](O[C@@H]2[C@@H](CO)OC(O)(CO)[C@H]2O)[C@H](O)[C@@H](O)[C@H]1O` (mixture of isomers) [Lactulose], 5.37%.
As to `O=C(CCCCCCNC(=O)c1cnc(N(c2ccccc2)c2ccccc2)nc1)NO` [Ricolinostat (ACY-1215)], the inhibition at 100 µM came out at 3.74%.
Still for that read-out and setting: under `CC(C(=O)O)c1cccc(Oc2ccccc2)c1` (centres unmarked) [Fenoprofen calcium hydrate] stands 8.96%; under `CC(=O)OCC(=O)[C@@]1(O)CC[C@H]2[C@@H]3CCC4=CC(=O)CC[C@]4(C)[C@@]3(F)[C@@H](O)C[C@@]21C` [Fludrocortisone acetate], 0%.
On the same count and under the same terms, under `O=C1NS(=O)(=O)c2ccccc21` [Saccharin] stands 0%.
`O=C(NC(Cc1cc(=O)[nH]c2ccccc12)C(=O)O)c1ccc(Cl)cc1` (centres unmarked) [Rebamipide]: the inhibition at 100 µM turned out to be 0%.
Take `Cc1ccc2c(Cl)cc(Cl)c(O)c2n1` [Chlorquinaldol]: the inhibition at 100 µM was found to be 1.48%.
Same read-out and setting: under `Cc1[nH]c(/C=C2\C(=O)Nc3ccccc32)c(C)c1CCC(=O)O` [Orantinib (TSU-68, SU6668)] stands 16.7%.
Same read-out and setting: under `CN[C@@H]1[C@H](O[C@H]2[C@H](O[C@H]3[C@H](O)[C@@H](O)[C@H](N=C(N)N)[C@@H](O)[C@@H]3N=C(N)N)O[C@@H](C)[C@]2(O)CO)O[C@@H](CO)[C@H](O)[C@H]1O` [Dihydrostreptomycin sulfate] stands 6.08%; under `C#CCN(C)Cc1ccccc1` [Pargyline hydrochloride], 0%.
As for `Cc1ccc(-c2cc(C(F)(F)F)nn2-c2ccc(S(N)(=O)=O)cc2)cc1` [Celecoxib], the inhibition at 100 µM was 10.4%.
Take `CNC(=O)c1ccccc1Sc1ccc2c(/C=C/c3ccccn3)n[nH]c2c1` [Axitinib]: the inhibition at 100 µM turned out to be 59.3%.
Same read-out and setting: under `COC(=O)[C@H](Cc1ccccc1)NC(=O)[C@@H](N)CC(=O)O` [Aspartame] (H-Asp-Phe-OMe) stands 0%.
Same read-out and setting: under `CC(=O)OCC1=C(C(=O)O)N2C(=O)[C@@H](NC(=O)CSc3ccncc3)[C@H]2SC1` [Cephapirin Sodium] stands 0%; under `CO/N=C(\C(=O)N[C@@H]1C(=O)N2C(C(=O)O)=CCS[C@H]12)c1csc(N)n1` [Ceftizoxime], 12.3%.
The same measure, in the same setting: under `COc1nccnc1NS(=O)(=O)c1ccc(N)cc1` [Sulfalene(SMPZ)] stands 5.42%; under `C[C@H](CSC(=O)c1ccccc1)C(=O)N1C[C@@H](Sc2ccccc2)C[C@H]1C(=O)O` [Zofenopril calcium], 10.7%.
Take `CC[C@H](C)C(=O)O[C@H]1C[C@@H](C)C=C2C=C[C@H](C)[C@H](CC[C@@H]3C[C@@H](O)CC(=O)O3)[C@H]21` [Lovastatin]: the inhibition at 100 µM was determined as 0%.
The same measure, in the same setting: under `CCOc1ccc(NC(=O)CC(C)O)cc1` (centres unmarked) [Bucetin] stands 2.67%.
